# Source: PubChem BioAssay (NCI)
#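 1) Cells in 96-well plates. 2) Compound, 48 h, 5 concentrations. 3) Linear interpolation between surrounding doses. 4) Unreached endpoint = highest concentration. Definition used: TGI = concentration required for complete inhibition of growth.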
# How the values were obtained:
# Assay in all cases: NCI anticancer screen, dose series, 48 h
# 786-0 renal = test system: 786-0 renal
# A498 renal = test system: A498 renal
# A549 NSCLC = test system: A549 NSCLC
# CAKI-1 renal = test system: CAKI-1 renal
# CCRF-CEM leukemia = test system: CCRF-CEM leukemia
# COLO 205 colon = test system: COLO 205 colon
# DLD-1 colon = test system: DLD-1 colon
# DMS 114 small cell lung = test system: DMS 114 small cell lung
# DMS 273 small cell lung = test system: DMS 273 small cell lung
# EKVX NSCLC = test system: EKVX NSCLC
# HCT-116 colon = test system: HCT-116 colon
# HCT-15 colon = test system: HCT-15 colon
# HL-60(TB) leukemia = test system: HL-60(TB) leukemia
# HOP-62 NSCLC = test system: HOP-62 NSCLC
# HOP-92 NSCLC = test system: HOP-92 NSCLC
# HT29 colon = test system: HT29 colon
# IGROV1 ovarian = test system: IGROV1 ovarian
# K-562 leukemia = test system: K-562 leukemia
# KM12 colon = test system: KM12 colon
# KM20L2 colon = test system: KM20L2 colon
# LOX IMVI melanoma = test system: LOX IMVI melanoma
# LXFL 529 NSCLC = test system: LXFL 529 NSCLC
# M14 melanoma = test system: M14 melanoma
# M19-MEL melanoma = test system: M19-MEL melanoma
# MALME-3M melanoma = test system: MALME-3M melanoma
# MOLT-4 leukemia = test system: MOLT-4 leukemia
# NCI-H226 lung = test system: NCI-H226 lung
# NCI-H23 lung = test system: NCI-H23 lung
# NCI-H460 lung = test system: NCI-H460 lung
# NCI-H522 lung = test system: NCI-H522 lung
# OVCAR-3 ovarian = test system: OVCAR-3 ovarian
# OVCAR-4 ovarian = test system: OVCAR-4 ovarian
# OVCAR-5 ovarian = test system: OVCAR-5 ovarian
# OVCAR-8 ovarian = test system: OVCAR-8 ovarian
# RPMI-8226 leukemia = test system: RPMI-8226 leukemia
# RXF 393 renal = test system: RXF 393 renal
# RXF-631 renal = test system: RXF-631 renal
# SF-268 CNS = test system: SF-268 CNS
# SF-295 CNS = test system: SF-295 CNS
# SF-539 CNS = test system: SF-539 CNS
# SK-MEL-5 melanoma = test system: SK-MEL-5 melanoma
# SK-OV-3 ovarian = test system: SK-OV-3 ovarian
# SN12C renal = test system: SN12C renal
# SNB-19 CNS = test system: SNB-19 CNS
# SNB-75 CNS = test system: SNB-75 CNS
# SNB-78 CNS = test system: SNB-78 CNS
# SR leukemia = test system: SR leukemia
# SW-620 colon = test system: SW-620 colon
# TK-10 renal = test system: TK-10 renal
# U251 CNS = test system: U251 CNS
# UACC-257 melanoma = test system: UACC-257 melanoma
# UACC-62 melanoma = test system: UACC-62 melanoma
# UO-31 renal = test system: UO-31 renal
# XF 498 CNS = test system: XF 498 CNS
# ACHN renal = test system: ACHN renal
# HCC-2998 colon = test system: HCC-2998 colon
# HOP-18 NSCLC = test system: HOP-18 NSCLC
# SK-MEL-2 melanoma = test system: SK-MEL-2 melanoma
# SK-MEL-28 melanoma = test system: SK-MEL-28 melanoma
compound,measurement,setting,value
CC(=O)C1(O)CC2(c3ccccc3)C(=O)C1(c1ccccc1)C(c1ccccc1)=C2c1ccccc1 (stereo unspecified),TGI,786-0 renal,> 100 µM
same,TGI,A498 renal,> 100 µM
same,TGI,A549 NSCLC,> 100 µM
same,TGI,CAKI-1 renal,> 100 µM
same,TGI,CCRF-CEM leukemia,> 100 µM
same,TGI,COLO 205 colon,> 100 µM
same,TGI,DLD-1 colon,> 100 µM
same,TGI,DMS 114 small cell lung,> 100 µM
same,TGI,DMS 273 small cell lung,> 100 µM
same,TGI,EKVX NSCLC,> 100 µM
same,TGI,HCT-116 colon,> 100 µM
same,TGI,HCT-15 colon,> 100 µM
same,TGI,HL-60(TB) leukemia,> 100 µM
same,TGI,HOP-62 NSCLC,> 100 µM
same,TGI,HOP-92 NSCLC,> 100 µM
same,TGI,HT29 colon,> 100 µM
same,TGI,IGROV1 ovarian,> 100 µM
same,TGI,K-562 leukemia,> 100 µM
same,TGI,KM12 colon,> 100 µM
same,TGI,KM20L2 colon,> 100 µM
same,TGI,LOX IMVI melanoma,> 100 µM
same,TGI,LXFL 529 NSCLC,> 100 µM
same,TGI,M14 melanoma,> 100 µM
same,TGI,M19-MEL melanoma,> 100 µM
same,TGI,MALME-3M melanoma,> 100 µM
same,TGI,MOLT-4 leukemia,> 100 µM
same,TGI,NCI-H226 lung,> 100 µM
same,TGI,NCI-H23 lung,> 100 µM
same,TGI,NCI-H460 lung,> 100 µM
same,TGI,NCI-H522 lung,> 100 µM
same,TGI,OVCAR-3 ovarian,> 100 µM
same,TGI,OVCAR-4 ovarian,> 100 µM
same,TGI,OVCAR-5 ovarian,> 100 µM
same,TGI,OVCAR-8 ovarian,> 100 µM
same,TGI,RPMI-8226 leukemia,> 100 µM
same,TGI,RXF 393 renal,> 100 µM
same,TGI,RXF-631 renal,> 100 µM
same,TGI,SF-268 CNS,> 100 µM
same,TGI,SF-295 CNS,> 100 µM
same,TGI,SF-539 CNS,> 100 µM
same,TGI,SK-MEL-5 melanoma,> 100 µM
same,TGI,SK-OV-3 ovarian,> 100 µM
same,TGI,SN12C renal,> 100 µM
same,TGI,SNB-19 CNS,> 100 µM
same,TGI,SNB-75 CNS,> 100 µM
same,TGI,SNB-78 CNS,> 100 µM
same,TGI,SR leukemia,> 100 µM
same,TGI,SW-620 colon,> 100 µM
same,TGI,TK-10 renal,> 100 µM
same,TGI,U251 CNS,> 100 µM
same,TGI,UACC-257 melanoma,> 100 µM
same,TGI,UACC-62 melanoma,> 100 µM
same,TGI,UO-31 renal,> 100 µM
same,TGI,XF 498 CNS,> 100 µM
CC(=O)N1C/C(=C\c2ccccc2)C(=O)/C(=C/c2ccccc2)C1,TGI,786-0 renal,30.2 µM
same,TGI,A498 renal,31.8 µM
same,TGI,A549 NSCLC,55.1 µM
same,TGI,ACHN renal,32.4 µM
same,TGI,CAKI-1 renal,35.5 µM
same,TGI,CCRF-CEM leukemia,11.3 µM
same,TGI,COLO 205 colon,33.9 µM
same,TGI,DLD-1 colon,25.8 µM
same,TGI,DMS 273 small cell lung,12.1 µM
same,TGI,EKVX NSCLC,51.3 µM
same,TGI,HCC-2998 colon,25 µM
same,TGI,HCT-116 colon,5.9 µM
same,TGI,HCT-15 colon,23.7 µM
same,TGI,HL-60(TB) leukemia,4.06 µM
same,TGI,HOP-18 NSCLC,32.9 µM
same,TGI,HOP-62 NSCLC,39 µM
same,TGI,HT29 colon,13.8 µM
same,TGI,IGROV1 ovarian,37.4 µM
same,TGI,K-562 leukemia,12.8 µM
same,TGI,KM12 colon,12.1 µM
same,TGI,KM20L2 colon,39.5 µM
same,TGI,LOX IMVI melanoma,9.01 µM
same,TGI,LXFL 529 NSCLC,21.6 µM
same,TGI,M14 melanoma,17.9 µM
same,TGI,M19-MEL melanoma,10.7 µM
same,TGI,MALME-3M melanoma,40 µM
same,TGI,MOLT-4 leukemia,23 µM
same,TGI,NCI-H226 lung,35.5 µM
same,TGI,NCI-H23 lung,41.3 µM
same,TGI,NCI-H460 lung,40.2 µM
same,TGI,NCI-H522 lung,27.9 µM
same,TGI,OVCAR-3 ovarian,16.4 µM
same,TGI,OVCAR-4 ovarian,33.2 µM
same,TGI,OVCAR-5 ovarian,35.7 µM
same,TGI,OVCAR-8 ovarian,24.4 µM
same,TGI,RPMI-8226 leukemia,4.79 µM
same,TGI,RXF 393 renal,30.4 µM
same,TGI,SF-268 CNS,66.1 µM
same,TGI,SF-295 CNS,26.9 µM
same,TGI,SF-539 CNS,34.3 µM
same,TGI,SK-MEL-2 melanoma,56.6 µM
same,TGI,SK-MEL-28 melanoma,27.5 µM
same,TGI,SK-MEL-5 melanoma,12.9 µM
same,TGI,SK-OV-3 ovarian,> 54 µM
same,TGI,SN12C renal,28.7 µM
same,TGI,SNB-19 CNS,31.5 µM
same,TGI,SNB-75 CNS,40.9 µM
same,TGI,SNB-78 CNS,53.4 µM
same,TGI,SR leukemia,17.5 µM
same,TGI,SW-620 colon,8.37 µM
same,TGI,TK-10 renal,34.8 µM
same,TGI,U251 CNS,29.7 µM
same,TGI,UACC-257 melanoma,18.6 µM
same,TGI,UACC-62 melanoma,34.2 µM
same,TGI,UO-31 renal,34.4 µM
same,TGI,XF 498 CNS,49.3 µM
O=C(/C=C/c1ccccc1)NC1C=Nc2ccc([N+](=O)[O-])cc2NC1=O (stereo unspecified),TGI,786-0 renal,> 100 µM
same,TGI,A498 renal,> 100 µM
same,TGI,A549 NSCLC,> 100 µM
same,TGI,ACHN renal,> 100 µM
same,TGI,CAKI-1 renal,> 100 µM
same,TGI,CCRF-CEM leukemia,> 100 µM
same,TGI,COLO 205 colon,> 100 µM
same,TGI,DLD-1 colon,> 100 µM
same,TGI,DMS 114 small cell lung,> 100 µM
same,TGI,DMS 273 small cell lung,> 100 µM
same,TGI,EKVX NSCLC,> 100 µM
same,TGI,HCC-2998 colon,> 100 µM
same,TGI,HCT-116 colon,> 100 µM
same,TGI,HCT-15 colon,> 100 µM
same,TGI,HL-60(TB) leukemia,> 100 µM
same,TGI,HOP-62 NSCLC,> 100 µM
same,TGI,HOP-92 NSCLC,> 100 µM
same,TGI,HT29 colon,> 100 µM
same,TGI,IGROV1 ovarian,> 100 µM
same,TGI,K-562 leukemia,> 100 µM
same,TGI,KM12 colon,86.7 µM
same,TGI,KM20L2 colon,> 100 µM
same,TGI,LOX IMVI melanoma,> 100 µM
same,TGI,LXFL 529 NSCLC,> 100 µM
same,TGI,M14 melanoma,> 100 µM
same,TGI,M19-MEL melanoma,> 100 µM
same,TGI,MALME-3M melanoma,> 100 µM
same,TGI,MOLT-4 leukemia,> 100 µM
same,TGI,NCI-H226 lung,> 100 µM
same,TGI,NCI-H23 lung,> 100 µM
same,TGI,NCI-H460 lung,> 100 µM
same,TGI,NCI-H522 lung,> 100 µM
same,TGI,OVCAR-3 ovarian,> 100 µM
same,TGI,OVCAR-4 ovarian,> 100 µM
same,TGI,OVCAR-5 ovarian,> 100 µM
same,TGI,OVCAR-8 ovarian,> 100 µM
same,TGI,RXF 393 renal,> 100 µM
same,TGI,SF-268 CNS,> 100 µM
same,TGI,SF-295 CNS,> 100 µM
same,TGI,SF-539 CNS,> 100 µM
same,TGI,SK-MEL-2 melanoma,> 100 µM
same,TGI,SK-MEL-28 melanoma,> 100 µM
same,TGI,SK-MEL-5 melanoma,> 100 µM
same,TGI,SK-OV-3 ovarian,> 100 µM
same,TGI,SN12C renal,> 100 µM
same,TGI,SNB-19 CNS,> 100 µM
same,TGI,SNB-75 CNS,> 100 µM
same,TGI,SNB-78 CNS,> 100 µM
same,TGI,SR leukemia,> 100 µM
same,TGI,SW-620 colon,> 100 µM
same,TGI,TK-10 renal,> 100 µM
same,TGI,U251 CNS,> 100 µM
same,TGI,UACC-257 melanoma,> 100 µM
same,TGI,UACC-62 melanoma,> 100 µM
same,TGI,UO-31 renal,> 100 µM
same,TGI,XF 498 CNS,> 100 µM
